# Laboratory results published in US10077261B2, “Imidazolin-5-one derivative useful as FASN inhibitors for the treatment of cancer” (Janssen Pharmaceutica NV, priority 2012, dated 2018).
# How the values were obtained:
# [1] = target: Fatty Acid Synthase Keto-reductase Domain (FASN KR) (Homo sapiens, UniProt P49327); test: Fatty Acid Synthase keto-reductase domain (FASN KR) inhibition, NADPH oxidation at 340 nm
# Procedure: After 20 minutes incubation at room temperature the plate was measured again (T2).
# The decrease in absorbance was calculated as (Absorbance before incubation T1)−(Absorbance following incubation T2).
# A plot of Controlmin versus test compound concentration was fitted to a 4-parameter logistic curve using a non-linear least squares regression method.
# A2780 ovarian cells [2] = test: A2780 ovarian cell proliferation assay in lipid reduced medium, without palmitate (MTT); format: cell-based; conditions: Homo sapiens, A2780, 96 h; read-out: pIC50 A2780 Ovarian Cell, Without Palmitate (converted)
# A2780 ovarian cells [3] = test: A2780 ovarian cell proliferation assay in lipid reduced medium, with palmitate (MTT); format: cell-based; conditions: Homo sapiens, A2780, 96 h; read-out: pIC50 A2780 Ovarian Cell, With Palmitate (converted)
# Procedure, shortened: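 Seeded cells were switched next day to lipid-reduced serum, exposed to compound and 25 μM palmitate complexed with fatty-acid-free BSA, and incubated 96 h. Proliferation was then determined by MTT absorbance at 544 nm, with a best-fit curve of signal against concentration.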
# [4] = target: T1, hFASN enzyme (full length) (Homo sapiens, UniProt P49327); test: Fatty Acid Synthase (FASN) inhibition scintillation proximity assay; format: biochemical; conditions: for inhibition at 10 µM: read-out: Human FASN % inhibition @ 10 μM, 10 μM test compound; for IC50: read-out: Human FASN pIC50 (converted)
# T1 construct: 10 μL hFASN enzyme (full length, 300 ng, purified in house); made in house
# Procedure, shortened: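 Compounds at 0.01–30 μM were mixed with 300 ng purified full-length enzyme in 100 mM KH2PO4 pH 7.5, 1 mM DTT. Substrates ³H-acetyl-CoA and malonyl-CoA were then converted, and bead addition stopped the reaction. Signal was normalised to low and high plate controls and fitted by 4-parameter nonlinear regression.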
# Fatty Acid Synthase Keto-reductase Domain (FASN KR), sequence (P49327 whole entry, the tested form may be a part): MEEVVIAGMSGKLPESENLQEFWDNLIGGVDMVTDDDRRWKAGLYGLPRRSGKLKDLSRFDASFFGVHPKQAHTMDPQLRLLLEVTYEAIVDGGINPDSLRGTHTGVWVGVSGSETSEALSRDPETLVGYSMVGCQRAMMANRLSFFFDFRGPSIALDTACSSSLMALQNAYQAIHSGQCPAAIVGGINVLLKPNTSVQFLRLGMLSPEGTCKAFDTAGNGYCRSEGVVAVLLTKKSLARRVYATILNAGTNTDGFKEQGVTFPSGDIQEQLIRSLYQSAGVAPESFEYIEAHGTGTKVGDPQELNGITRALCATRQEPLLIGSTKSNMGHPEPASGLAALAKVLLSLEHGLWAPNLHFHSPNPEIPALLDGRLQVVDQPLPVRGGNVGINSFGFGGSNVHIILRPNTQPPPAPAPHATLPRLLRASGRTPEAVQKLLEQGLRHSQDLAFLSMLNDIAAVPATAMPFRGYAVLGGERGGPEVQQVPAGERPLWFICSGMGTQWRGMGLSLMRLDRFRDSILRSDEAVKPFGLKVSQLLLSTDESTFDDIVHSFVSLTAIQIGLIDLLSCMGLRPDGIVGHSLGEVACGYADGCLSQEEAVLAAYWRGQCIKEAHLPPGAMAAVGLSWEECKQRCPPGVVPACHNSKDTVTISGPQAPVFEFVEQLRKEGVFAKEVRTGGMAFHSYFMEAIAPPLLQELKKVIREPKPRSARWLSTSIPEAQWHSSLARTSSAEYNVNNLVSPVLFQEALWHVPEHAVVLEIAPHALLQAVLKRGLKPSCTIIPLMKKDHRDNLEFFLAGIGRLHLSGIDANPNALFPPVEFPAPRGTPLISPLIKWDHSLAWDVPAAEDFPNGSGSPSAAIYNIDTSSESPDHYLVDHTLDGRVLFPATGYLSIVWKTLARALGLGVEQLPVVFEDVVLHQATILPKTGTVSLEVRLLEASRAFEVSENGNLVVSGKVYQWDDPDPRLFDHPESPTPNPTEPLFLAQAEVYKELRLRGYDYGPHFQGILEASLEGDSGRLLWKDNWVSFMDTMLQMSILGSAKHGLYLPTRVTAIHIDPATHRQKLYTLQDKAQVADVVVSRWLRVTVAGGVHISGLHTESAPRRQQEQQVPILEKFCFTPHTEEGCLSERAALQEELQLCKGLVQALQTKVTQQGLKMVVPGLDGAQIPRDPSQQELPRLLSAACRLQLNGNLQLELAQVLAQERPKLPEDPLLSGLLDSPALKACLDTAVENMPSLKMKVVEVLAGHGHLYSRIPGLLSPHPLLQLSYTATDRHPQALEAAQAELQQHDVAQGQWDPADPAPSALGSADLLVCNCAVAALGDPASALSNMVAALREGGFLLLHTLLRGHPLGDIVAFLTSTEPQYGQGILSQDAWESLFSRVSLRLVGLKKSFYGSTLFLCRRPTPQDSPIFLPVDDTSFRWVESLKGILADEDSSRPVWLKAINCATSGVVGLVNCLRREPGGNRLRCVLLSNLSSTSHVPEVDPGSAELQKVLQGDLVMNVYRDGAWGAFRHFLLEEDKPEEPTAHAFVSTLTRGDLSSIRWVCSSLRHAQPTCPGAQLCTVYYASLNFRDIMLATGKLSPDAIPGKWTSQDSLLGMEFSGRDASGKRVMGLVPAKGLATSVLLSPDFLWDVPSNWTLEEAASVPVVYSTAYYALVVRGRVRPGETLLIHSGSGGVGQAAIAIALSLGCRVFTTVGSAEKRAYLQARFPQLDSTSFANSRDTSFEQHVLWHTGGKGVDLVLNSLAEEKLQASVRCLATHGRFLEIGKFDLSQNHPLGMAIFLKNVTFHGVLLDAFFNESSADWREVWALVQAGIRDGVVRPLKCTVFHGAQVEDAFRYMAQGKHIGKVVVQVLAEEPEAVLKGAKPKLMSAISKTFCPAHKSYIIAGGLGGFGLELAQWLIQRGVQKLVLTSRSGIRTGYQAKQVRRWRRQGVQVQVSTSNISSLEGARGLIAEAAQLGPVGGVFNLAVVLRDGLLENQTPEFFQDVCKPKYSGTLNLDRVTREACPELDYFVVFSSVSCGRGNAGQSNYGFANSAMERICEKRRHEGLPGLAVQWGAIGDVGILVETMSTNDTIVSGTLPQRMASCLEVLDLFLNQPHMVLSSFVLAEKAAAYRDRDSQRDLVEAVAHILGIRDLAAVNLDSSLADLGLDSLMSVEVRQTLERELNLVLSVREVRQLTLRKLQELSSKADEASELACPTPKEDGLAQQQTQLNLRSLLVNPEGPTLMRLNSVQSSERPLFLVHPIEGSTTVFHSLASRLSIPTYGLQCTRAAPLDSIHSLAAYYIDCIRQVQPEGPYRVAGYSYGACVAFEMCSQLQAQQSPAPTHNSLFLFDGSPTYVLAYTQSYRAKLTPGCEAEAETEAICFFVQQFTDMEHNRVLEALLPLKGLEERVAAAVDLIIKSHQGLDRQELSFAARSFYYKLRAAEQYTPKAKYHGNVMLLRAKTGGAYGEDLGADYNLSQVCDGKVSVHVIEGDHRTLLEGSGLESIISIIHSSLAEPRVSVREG
# T1 sequence (P49327 whole entry): as the sequence (P49327 whole entry, the tested form may be a part) above
structure (smiles),measurement,setting,value
"Cc1ccc(-c2ccc(C3=NC4(CC4)C(=O)N3C[C@@H]3CCN(C(=O)C4CC4)C3)cc2)cc1 [compound 100, 6-{[(3R)-1-(Cyclopropylcarbonyl)pyrrolidin-3-yl]methyl}-5-(4′-methylbiphenyl-4-yl)-4,6-diazaspiro[2.4]hept-4-en-7-one]",IC50,[1],209 nM
same,IC50,A2780 ovarian cells [2],776 nM
same,IC50,A2780 ovarian cells [3],> 10000 nM
same,inhibition at 10 µM,[4],110%
same,IC50,[4],74.1 nM
"O=C(C1CC1)N1CC[C@@H](CN2C(=O)C3(CCCC3)N=C2c2ccc(-c3cccc4cnccc34)cc2)C1 [compound 67, 3-{[(3R)-1-(Cyclopropylcarbonyl)pyrrolidin-3-yl]methyl}-2-(4-isoquinolin-5-ylphenyl)-1,3-diazaspiro[4.4]non-1-en-4-one]",IC50,[1],1550 nM
same,IC50,A2780 ovarian cells [2],1620 nM
same,IC50,A2780 ovarian cells [3],> 10000 nM
same,inhibition at 10 µM,[4],100%
same,IC50,[4],282 nM
"O=C(C1CC1)N1CC(CN2C(=O)C3(CCCC3)N=C2c2ccc(-c3ccc4occc4c3)cc2)C1 [compound 80, 2-[4-(1-Benzofuran-5-yl)phenyl]-3-{[1-(cyclopropylcarbonyl)azetidin-3-yl]methyl}-1,3-diazaspiro[4.4]non-1-en-4-one]",IC50,[1],1480 nM
same,IC50,A2780 ovarian cells [2],2290 nM
same,IC50,A2780 ovarian cells [3],> 10000 nM
same,inhibition at 10 µM,[4],92.1%
same,IC50,[4],437 nM
"O=C(C1CC1)N1CC[C@@H](CN2C(=O)C3(CCCC3)N=C2c2ccc(-c3cccc4ncccc34)cc2)C1 [compound 66, 3-{[(3R)-1-(Cyclopropylcarbonyl)pyrrolidin-3-yl]methyl}-2-(4-quinolin-5-ylphenyl)-1,3-diazaspiro[4.4]non-1-en-4-one]",IC50,[1],282 nM
same,IC50,A2780 ovarian cells [2],1100 nM
same,IC50,A2780 ovarian cells [3],> 10000 nM
same,inhibition at 10 µM,[4],106%
same,IC50,[4],74.1 nM
"Cc1cc(-c2ccc(Cl)cc2Cl)ccc1C1=NC2(CCCC2)C(=O)N1C[C@@H]1CCN(C(=O)C2CC2)C1 [compound 94, 3-{[(3R)-1-(Cyclopropylcarbonyl)pyrrolidin-3-yl]methyl}-2-(2′,4′-dichloro-3-methylbiphenyl-4-yl)-1,3-diazaspiro[4.4]non-1-en-4-one]",IC50,[1],891 nM
same,IC50,A2780 ovarian cells [2],~2140 nM
same,IC50,A2780 ovarian cells [3],> 10000 nM
same,inhibition at 10 µM,[4],111%
same,IC50,[4],145 nM
"Cc1cc(-c2ccc3cnccc3c2)ccc1C1=NC2(CCCC2)C(=O)N1C[C@@H]1CCN(C(=O)C2CC2)C1 [compound 74, 3-{[(3R)-1-(cyclopropylcarbonyl)pyrrolidin-3-yl]methyl}-2-(4-isoquinolin-6-yl-2-methylphenyl)-1,3-diazaspiro[4.4]non-1-en-4-one]",IC50,[1],60.3 nM
same,IC50,A2780 ovarian cells [2],8.71 nM
same,IC50,A2780 ovarian cells [3],> 10000 nM
same,inhibition at 10 µM,[4],114%
same,IC50,[4],22.4 nM
"Cc1cc2cc(-c3ccc(C4=NC5(CC5)C(=O)N4C[C@@H]4CCN(C(=O)C5CC5)C4)c(C)c3)ccc2o1 [compound 280, (R)-6-((1-(cyclopropanecarbonyl)pyrrolidin-3-yl)methyl)-5-(2-methyl-4-(2-methylbenzofuran-5-yl)phenyl)-4,6-diazaspiro[2.4]hept-4-en-7-one]",IC50,[1],126 nM
same,IC50,A2780 ovarian cells [2],~1950 nM
same,IC50,A2780 ovarian cells [3],> 10000 nM
same,inhibition at 10 µM,[4],109%
same,IC50,[4],30.2 nM
"O=C(C1CC1)N1CC[C@@H](CN2C(=O)C3(CCNCC3)N=C2c2ccc(-c3ccc4cnccc4c3)cc2)C1 [compound 106, 3-{[(3R)-1-(Cyclopropylcarbonyl)pyrrolidin-3-yl]methyl}-2-(4-isoquinolin-6-ylphenyl)-1,3,8-triazaspiro[4.5]dec-1-en-4-one]",IC50,[1],603 nM
same,IC50,A2780 ovarian cells [2],741 nM
same,IC50,A2780 ovarian cells [3],> 10000 nM
same,inhibition at 10 µM,[4],110%
same,IC50,[4],112 nM
"O=C(C1CC1)N1CC(CN2C(=O)C3(CC3)N=C2c2ccc(-c3ccc4ocnc4c3)cc2)C1 [compound 52, 5-[4-(1,3-Benzoxazol-5-yl)phenyl]-6-{[1-(cyclopropylcarbonyl)azetidin-3-yl]methyl}-4,6-diazaspiro[2.4]hept-4-en-7-one]",IC50,[1],1780 nM
same,IC50,A2780 ovarian cells [2],1860 nM
same,IC50,A2780 ovarian cells [3],> 10000 nM
same,inhibition at 10 µM,[4],89.9%
same,IC50,[4],759 nM
"O=C(C1CC1)N1CC[C@@H](CN2C(=O)C3(CCCC3)N=C2c2ccc(-c3ccc4ncccc4c3)cc2)C1 [compound 11, 3-{[(3R)-1-(Cyclopropylcarbonyl)pyrrolidin-3-yl]methyl}-2-(4-quinolin-6-ylphenyl)-1,3-diazaspiro[4.4]non-1-en-4-one]",IC50,[1],2040 nM
same,IC50,A2780 ovarian cells [2],~3020 nM
same,IC50,A2780 ovarian cells [3],> 10000 nM
same,inhibition at 10 µM,[4],82.2%
same,IC50,[4],933 nM
"Cc1cc2cc(-c3ccc(C4=NC5(CC5)C(=O)N4C[C@@H]4CCN(C(=O)C5CC5)C4)c(C)c3)ccc2s1 [compound 281, (R)-6-((1-(cyclopropanecarbonyl)pyrrolidin-3-yl)methyl)-5-(2-methyl-4-(2-methylbenzo[b]thiophen-5-yl)phenyl)-4,6-diazaspiro[2.4]hept-4-en-7-one]",IC50,[1],110 nM
same,IC50,A2780 ovarian cells [2],~813 nM
same,IC50,A2780 ovarian cells [3],> 6170 nM
same,inhibition at 10 µM,[4],114%
same,IC50,[4],44.7 nM
"O=C(C1CC1)N1CCC(CN2C(=O)C3(CCCC3)N=C2c2ccc(-c3ccc4occc4c3)cc2)CC1 [compound 75, 1-[4-(1-Benzofuran-5-yl)phenyl]-3-{[1-(cyclopropylcarbonyl)piperidin-4-yl]methyl}-1,3-diazaspiro[4.4]non-1-en-4-one]",IC50,[1],2140 nM
same,IC50,A2780 ovarian cells [2],5890 nM
same,IC50,A2780 ovarian cells [3],> 10000 nM
same,inhibition at 10 µM,[4],92.7%
same,IC50,[4],513 nM
"COc1ccc(-c2ccc(C3=NC4(CCCC4)C(=O)N3C[C@@H]3CCN(C(=O)C4CC4)C3)cc2)cc1 [compound 85, 3-{[(3R)-1-(Cyclopropylcarbonyl)pyrrolidin-3-yl]methyl}-2-(4′-methoxybiphenyl-4-yl)-1,3-diazaspiro[4.4]non-1-en-4-one]",IC50,[1],2040 nM
same,IC50,A2780 ovarian cells [2],~2880 nM
same,IC50,A2780 ovarian cells [3],> 10000 nM
same,inhibition at 10 µM,[4],97.9%
same,IC50,[4],355 nM
"O=C(C1CC1)N1CC[C@@H](CN2C(=O)C3(CC3)N=C2c2ccc(-c3ccc(-c4ccncc4)cc3)cc2)C1 [compound 235, (R)-6-((1-(cyclopropanecarbonyl)pyrrolidin-3-yl)methyl)-5-(4′-(pyridin-4-yl)-[1,1′-biphenyl]-4-yl)-4,6-diazaspiro[2.4]hept-4-en-7-one]",IC50,[1],45.7 nM
same,IC50,A2780 ovarian cells [2],10 nM
same,IC50,A2780 ovarian cells [3],> 10000 nM
same,inhibition at 10 µM,[4],111%
same,IC50,[4],23.4 nM
"O=C(C1CC1)N1CCC(CN2C(=O)C3(CCCC3)N=C2c2ccc(-c3ccc4cnccc4c3)cc2)CC1 [compound 77, 3-{[1-(Cyclopropylcarbonyl)piperidin-4-yl]methyl}-2-(4-isoquinolin-6-ylphenyl)-1,3-diazaspiro[4.4]non-1-en-4-one]",IC50,[1],871 nM
same,IC50,A2780 ovarian cells [2],661 nM
same,IC50,A2780 ovarian cells [3],> 10000 nM
same,inhibition at 10 µM,[4],103%
same,IC50,[4],174 nM
"Cn1cc(-c2ccc(-c3ccc(C4=NC5(CC5)C(=O)N4CC4CCN(C(=O)C5CC5)CC4)cc3)cc2)cn1 [compound 56, 6-{[1-(Cyclopropylcarbonyl)piperidin-4-yl]methyl}-5-[4′-(1-methyl-1H-p;yrazol-4-yl)biphenyl-4-yl]-4,6-diazaspiro[2.4]hept-4-en-7-one]",IC50,[1],1380 nM
same,IC50,A2780 ovarian cells [2],1580 nM
same,IC50,A2780 ovarian cells [3],6030 nM
same,inhibition at 10 µM,[4],89.2%
same,IC50,[4],407 nM
"O=C(C1CC1)N1CC[C@@H](CN2C(=O)C3(CCCC3)N=C2c2ccc(-c3ccc4cc[nH]c4c3)cc2F)C1 [compound 874, (R)-3-((1-(cyclopropanecarbonyl)pyrrolidin-3-yl)methyl)-2-(2-fluoro-4-(1H-indol-6-yl)phenyl)-1,3-diazaspiro[4.4]non-1-en-4-one]",IC50,[1],40.7 nM
same,IC50,A2780 ovarian cells [2],20.9 nM
same,IC50,A2780 ovarian cells [3],> 10000 nM
same,inhibition at 10 µM,[4],108%
same,IC50,[4],25.1 nM
"O=C(C1CC1)N1CC(CN2C(=O)C3(CC3)N=C2c2ccc(-c3ccc4sccc4c3)c(F)c2)C1 [compound 404, 5-[4-(1-Benzothiophen-5-yl)-3-fluorophenyl]-6-{[1-(cyclopropylcarbonyl)azetidin-3-yl]methyl}-4,6-diazaspiro[2.4]hept-4-en-7-one]",IC50,[1],490 nM
same,IC50,A2780 ovarian cells [2],1100 nM
same,IC50,A2780 ovarian cells [3],> 10000 nM
same,inhibition at 10 µM,[4],97%
same,IC50,[4],178 nM
"O=C(C1CC1)N1CC[C@@H](CN2C(=O)C3(CCCC3)N=C2c2ccc(-c3ccc4[nH]ccc4c3)cc2F)C1 [compound 845, (R)-3-((1-(cyclopropanecarbonyl)pyrrolidin-3-yl)methyl)-2-(2-fluoro-4-(1H-dinol-5-yl)phenyl)-1,3-diazaspiro[4.4]non-1-en-4-one]",IC50,[1],25.1 nM
same,IC50,A2780 ovarian cells [2],11 nM
same,IC50,A2780 ovarian cells [3],> 10000 nM
same,inhibition at 10 µM,[4],106%
same,IC50,[4],20 nM
"COC(=O)N1CCC2(CC1)N=C(c1ccc(-c3ccc4[nH]ccc4c3)cc1)N(CC1CN(C(=O)C3CC3)C1)C2=O [compound 17, Methyl 3-{[1-(cyclopropylcarbonyl)azetidin-3-yl]methyl}-2-[4-(1H-indol-5-yl)phenyl]-4-oxo-1,3,8-triazaspiro[4.5]dec-1-ene-8-carboxylate]",IC50,[1],347 nM
same,IC50,A2780 ovarian cells [2],398 nM
same,IC50,A2780 ovarian cells [3],> 10000 nM
same,inhibition at 10 µM,[4],97%
same,IC50,[4],229 nM
